The text below walks through data of US7910752B2, “Anticancer compound, intermediate therefor, and processes for producing these” (Taheebo Japan Co., Ltd., priority 2005, dated 2011).

Like-named read-outs stand apart in the source and are kept apart here.

The term viability denotes the share of living cells, or the viability signal relative to a control.

Common to all, as to assay type: cell-based
The subject of one data set is PC-3 cells. The data set can be described thus: Antitumor activity against PC-3 cells (2), viable cell count. To be noted: Homo sapiens. As for the experimental part:
(§1) PC-3 cells (manufactured by Department of Laboratory Products of Dainippon Pharm. Co. Ltd.) are preliminarily seeded in 35 mm petri dishes containing Dulbecco's modified Eagle medium (DMEM) containing 20% of fetal bovine serum (FBS) in a concentration of 1×10^5/ml. The resulting cells are incubated at 36° C. for 1 day under 5% CO2, and cells are confirmed to be stuck at the bottom of the petri dishes. The resulting PC-3 cells are divided into […], to the first group of which is added (±)-2-(1-hydroxyethyl)-5-hydroxynaphtho[2,3-b]furan-4,9-dione (racemate) in concentrations of 0.5 mM, 0.05 mM and 0.005 mM, and to the second group of which is added adriamycin (Wakenyaku Co. Ltd.) as a control in concentrations of 0.5 mM, 0.05 mM and 0.005 mM. These groups are incubated at 36° C. for 3 days, and viable cells are counted and viability is calculated.
(§2) PC-3 cells obtained in a similar manner in the above (1) are divided into three groups, to the first group of which is added (±)-2-(1-hydroxyethyl)-5-hydroxynaphtho[2,3-b]furan-4,9-dione (racemate) in concentrations of 0.5 mM, 0.05 mM, 0.005 mM and 0.0005 mM, to the second group of which is added an unnatural type 2-(1-hydroxyethyl)-5-hydroxynaphtho[2,3-b]furan-4,9-dione (α-isomer) in concentrations of 0.5 mM, 0.05 mM, 0.005 mM and 0.0005 mM, to the third group of which is added a natural type 2-(1-hydroxyethyl)-5-hydroxynaphtho[2,3-b]furan-4,9-dione (β-isomer) in concentrations of 0.5 mM, 0.05 mM, 0.005 mM and 0.0005 mM, and to the fourth group of which is added mitomycin as a control in concentrations of 0.5 mM, 0.05 mM, 0.005 mM and 0.0005 mM. These groups are incubated at 36° C. for 3 days, and viable cells are counted and viability is calculated.

For data set [1], the system named is A-549 cells (Lung cancer cells). The data set is described as follows: Antitumor activity against A-549 cells, viable cell count. As to conditions: Homo sapiens, A549, 72 h. As for the experimental part: as §2
Antitumor activity is examined on A-549 cells in a similar manner as in the above (2).

The test system of data set [2] is MCF-7 cells (Breast cancer cells). The data set is described as follows: Antitumor activity against MCF-7 cells, viable cell count. To be noted: Homo sapiens, MCF7, 72 h. As for the experimental part:
as §2
Antitumor activity is examined on MCF-7 cells in a similar manner as in the above (2).

Data set [3] relates to Human Skin Normal Cells (Cell System Fb cells). The data set is described as follows: Cytotoxicity assay for human skin normal cells, trypan blue. To be noted: for Viability %: human skin normal cells, 3 days. As for the experimental part:
(§3) Each human normal cells are preliminarily seeded in 35 mm petri dishes containing Dulbecco's modified Eagle medium (DMEM) containing 20% of fetal bovine serum (FBS) in a concentration of 1×10^5/ml. The resulting cells are incubated at 36° C. for 1 day under 5% CO2, and cells are confirmed to be stuck at the bottom of the petri dishes. A racemate, α-isomer and β-isomer are each dissolved in DMSO to give solutions in concentrations of 0.5 mM, 0.05 mM, 0.005 mM and 0.0005 mM, 2 μL each of which are added to each cells. The resulting cells are incubated at 36° C. for 3 days, and viable cells are counted by using 0.25% trypan blue and viabilities are calculated. A commercially-available anticancer agent mitomycin is also examined as a control in the test against human skin normal cells, and the results are also shown in TABLE 6.

Data set [4] relates to Human Hepatic Normal Cells (Cell Systems Hc Cells). The data set can be described thus: Cytotoxicity assay for human hepatic normal cells, trypan blue. To be noted: 3 days. As for the experimental part: as §3
Data set [5] concerns Human Intestinal Normal Cells (Cell Systems IE Cells). The data set is described as follows: Cytotoxicity assay for human intestinal normal cells, trypan blue. As to conditions: 3 days. As for the experimental part: as §3
In data set [6] the test system is Human Lung Normal Cells (MRC-5). The data set is described as follows: Cytotoxicity assay for human lung normal cells, trypan blue. To be noted: 3 days. As for the experimental part:
as §3

Data set [7] deals with PC-3 cells (Prostate cancer cells). The data set can be described thus: Antitumor activity against PC-3 cells (1), viable cell count. As to conditions: Homo sapiens, PC-3, 72 h. As for the experimental part:
as §1

On to `CO[C@@]12[C@H](COC(N)=O)C3=C(C(=O)C(C)=C(N)C3=O)N1C[C@@H]1N[C@@H]12` [Mitomycin, mitomycin, reference compound], for which the viability at 0.5 µM in the data set on PC-3 cells (72 h, PC-3 cells, 0.0005 mM, 3 days, read-out: Viability %) is 40%; in data set [1] (A-549 cells, 0.0005 mM, 3 days, read-out: Viability %), 50%; in data set [2] (MCF-7 cells, 0.0005 mM, 3 days, read-out: Viability %) it was 60%. In addition, the viability at 5 µM with PC-3 cells (72 h, PC-3 cells, 0.005 mM, 3 days, read-out: Viability %) turned out to be 10%; in data set [1] (A-549 cells, 0.005 mM, 3 days, read-out: Viability %), 10%; in data set [2] (MCF-7 cells, 0.005 mM, 3 days, read-out: Viability %), 30%. Also, the viability at 50 µM in the data set on PC-3 cells (72 h, PC-3 cells, 0.05 mM, 3 days, read-out: Viability %) turned out to be 0%; in data set [1] (A-549 cells, 0.05 mM, 3 days, read-out: Viability %), 0%; in data set [2] (MCF-7 cells, 0.05 mM, 3 days, read-out: Viability %) it was 10%. The viability at 500 µM in the data set on PC-3 cells (72 h, PC-3 cells, 0.5 mM, 3 days, read-out: Viability %) is 0%; in data set [1] (A-549 cells, 0.5 mM, 3 days, read-out: Viability %) it was 0%; in data set [2] (MCF-7 cells, 0.5 mM, 3 days, read-out: Viability %), 0%. The Viability % was found to be 60% in data set [3] (0.0005 mM), 30% in data set [3] (0.005 mM), 0% in data set [3] (0.05 mM) and 0% in data set [3] (0.5 mM). Besides, in data set [3] (summary in words of TABLE 6), the “toxicity to normal cells” value is “very strong toxicity”.

In the case of `CC(O)c1cc2c(o1)C(=O)c1cccc(O)c1C2=O` (single isomer, unassigned; isomer 2) [β-Isomer, 2-(1-hydroxyethyl)-5-hydroxynaphtho[2,3-b]furan-4,9-dione], the viability at 0.5 µM stood at 40% in the data set on PC-3 cells (PC-3, 72 h); 60% in data set [1]; 70% in data set [2]. The viability at 5 µM with PC-3 cells (PC-3, 72 h) is 10%; in data set [1], 30%; in data set [2], 50%. The viability at 50 µM stood at 0% in the data set on PC-3 cells (PC-3, 72 h); 10% in data set [1]; 20% in data set [2]. The viability at 500 µM with PC-3 cells (PC-3, 72 h) came to 0%; in data set [1] it was 0%; in data set [2] it was 0%. Besides, the Viability % was 100% in data set [3] (0.0005 mM); 50% in data set [3] (0.005 mM); 20% in data set [3] (0.05 mM); 10% in data set [3] (0.5 mM); 100% in data set [4] (0.0005 mM); 50% in data set [4] (0.005 mM). Further, the Viability % in data set [4] (0.05 mM) is 20%; in data set [4] (0.5 mM), 10%; in data set [5] (0.0005 mM) it was 100%; in data set [5] (0.005 mM), 70%; in data set [5] (0.05 mM), 50%; in data set [5] (0.5 mM) it was 30%. For the same compound, the Viability % is recorded as 100% in data set [6] (0.0005 mM), 70% in data set [6] (0.005 mM), 40% in data set [6] (0.05 mM) and 20% in data set [6] (0.5 mM).

For `COc1cccc2c1C(=O)c1c(O)c3c(c(O)c1C2=O)C[C@@](O)(C(=O)CO)C[C@@H]3O[C@H]1C[C@H](N)[C@H](O)[C@H](C)O1` [Adriamycin, adriamycin, reference compound], in data set [7], the viability at 5 µM was found to be 42%, the viability at 50 µM came out at 0% and the viability at 500 µM was found to be 0%.

For `CC(O)c1cc2c(o1)C(=O)c1cccc(O)c1C2=O` (single isomer, unassigned; isomer 2) [α-Isomer, 2-(1-hydroxyethyl)-5-hydroxynaphtho[2,3-b]furan-4,9-dione], the viability at 0.5 µM in the data set with PC-3 cells (PC-3, 72 h) amounted to 60%; in data set [1] it was 70%; in data set [2], 90%. Further, the viability at 5 µM worked out at 30% in the data set on PC-3 cells (PC-3, 72 h); 40% in data set [1]; 60% in data set [2]. Further, the viability at 50 µM with PC-3 cells (PC-3, 72 h) stood at 0%; in data set [1], 10%; in data set [2], 30%. Also, the viability at 500 µM in the data set with PC-3 cells (PC-3, 72 h) amounted to 0%; in data set [1], 0%; in data set [2], 0%. Also, the Viability % in data set [3] (0.0005 mM) was 100%; in data set [3] (0.005 mM) it was 70%; in data set [3] (0.05 mM) it was 40%; in data set [3] (0.5 mM) it was 30%; in data set [4] (0.0005 mM) it was 100%; in data set [4] (0.005 mM), 70%. Besides, the Viability % in data set [4] (0.05 mM) amounted to 40%; in data set [4] (0.5 mM), 20%; in data set [5] (0.0005 mM), 100%; in data set [5] (0.005 mM) it was 80%; in data set [5] (0.05 mM) it was 60%; in data set [5] (0.5 mM), 40%. Also, the Viability % is 100% in data set [6] (0.0005 mM), 80% in data set [6] (0.005 mM), 50% in data set [6] (0.05 mM) and 30% in data set [6] (0.5 mM).

For `CC(O)c1cc2c(o1)C(=O)c1cccc(O)c1C2=O` (racemic) [Racemate, (±)-2-(1-hydroxyethyl)-5-hydroxynaphtho[2,3-b]furan-4,9-dione], the viability at 5 µM in data set [7] is 50%; with PC-3 cells (PC-3, 72 h) it was 30%; in data set [1] it was 50%; in data set [2] it was 50%. Moreover, the viability at 50 µM in data set [7] was 0%; in the data set with PC-3 cells (PC-3, 72 h) it was 0%; in data set [1], 10%; in data set [2], 20%. Also, the viability at 500 µM was found to be 0% in data set [7]; 0% in the data set with PC-3 cells (PC-3, 72 h); 0% in data set [1]; 0% in data set [2]. For the same compound, the viability at 0.5 µM with PC-3 cells (PC-3, 72 h) turned out to be 50%; in data set [1], 70%; in data set [2], 90%. The Viability % in data set [3] (0.0005 mM) is given as 100%; in data set [3] (0.005 mM), 80%; in data set [3] (0.05 mM), 50%; in data set [3] (0.5 mM), 20%; in data set [4] (0.0005 mM) it was 100%; in data set [4] (0.005 mM), 80%. Also, the Viability % in data set [4] (0.05 mM) is on record as 60%; in data set [4] (0.5 mM), 30%; in data set [5] (0.0005 mM), 100%; in data set [5] (0.005 mM) it was 80%; in data set [5] (0.05 mM), 60%; in data set [5] (0.5 mM), 40%. Further, the Viability % in data set [6] (0.0005 mM) was 100%; in data set [6] (0.005 mM), 80%; in data set [6] (0.05 mM), 60%; in data set [6] (0.5 mM), 30%.
